In test [1] the target is T1, AII receptor (Bos taurus, UniProt P25104).
T1 construct: An AII receptor membrane fraction was prepared from bovine adrenal cortex; from tissue; host or cells: bovine adrenal cortex, membrane fraction
T1 sequence (P25104 1-359): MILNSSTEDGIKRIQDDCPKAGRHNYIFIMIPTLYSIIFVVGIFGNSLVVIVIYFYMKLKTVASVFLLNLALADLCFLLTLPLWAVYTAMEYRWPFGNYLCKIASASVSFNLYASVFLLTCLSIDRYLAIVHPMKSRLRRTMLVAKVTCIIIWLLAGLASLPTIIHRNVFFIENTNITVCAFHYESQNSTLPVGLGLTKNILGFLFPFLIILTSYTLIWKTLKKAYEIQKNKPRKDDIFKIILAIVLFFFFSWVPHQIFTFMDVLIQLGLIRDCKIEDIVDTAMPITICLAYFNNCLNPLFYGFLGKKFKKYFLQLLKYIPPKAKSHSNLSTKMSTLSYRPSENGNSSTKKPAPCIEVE
Nature of the test: Inhibition of binding of [125I]-angiotensinII to AII receptor (radioreceptor assay). To be noted: 1 h, membrane fraction from bovine adrenal cortex, room temperature, one hour; for inhibition at 1 µM: 10^-6 (M); for inhibition at 0.1 µM: 10^-7 (M). On the procedure: An experiment of inhibition on the binding of angiotensinII (AII) to AII receptor was conducted by modifying the method of Douglas et al. [Endocrinology, 102, 685-696 (1978)]. An AII receptor membrane fraction was prepared from bovine adrenal cortex.
The compound of the present invention (10 ^-6 M or 10^-7 M) and [^125 I]-angiotensinII ([^125 I]-AII) (1.85 kBq/50 μl) were added to the receptor membrane fraction, and the mixture was incubated at room temperature for one hour. The receptor-bound and free [^125 I]-AII were separated through a filter (Whatman GF/B filter), and the radioactivity of [^125 I]-AII bound to the receptor was measured.

The conditions of test [2]: reported in literature; cited from earlier work.

The structures appear in SMILES notation.

By inhibition is commonly meant the share of the control response that was lost under treatment. In test [1], `CCCCc1nc2c(C)cnc(C(=O)O)c2n1Cc1ccc(-c2ccccc2-c2nnn[nH]2)cc1` [Example 1, 2-Butyl-7-methyl-3-[[2'-(1H-tetrazol-5-yl)biphenyl-4-yl]methyl]-3H-imidazo[4,5-c]pyridine-4-carboxylic acid] showed an inhibition at 1 µM of 92% and an inhibition at 0.1 µM of 63%.
In test [1], `CCCc1nc2c(C)cnc(C(=O)O)c2n1Cc1ccc(-c2ccccc2-c2nnn[nH]2)cc1` [Example 2, 2-Propyl-7-methyl-3-[[2'-(1H-tetrazol-5-yl)biphenyl-4-yl]methyl]-3H-imidazo[4,5-c]pyridine-4-carboxylic acid] had an inhibition at 1 µM of 92% and an inhibition at 0.1 µM of 54%.
With `CCc1cc2c(=O)c3cccc(C(=O)O)c3n(Cc3ccc(-c4ccccc4-c4nnn[nH]4)cc3)c2s1` [Example 3, 2-Ethyl-4-oxo-9-[[2'-(1H-tetrazol-5-yl)biphenyl-4-yl]methyl]-4,9-dihydrothieno[2,3-b]quinoline-8-carboxylic acid], in test [1], the inhibition at 1 µM was determined as 49% and the inhibition at 0.1 µM was determined as 12%.
The like results for `CCCc1cn2ncc(C(=O)O)c2n1Cc1ccc(-c2ccccc2-c2nn[nH]n2)cc1` [Example 6, 5-Propyl-4-[[2'-(1H-tetrazol-5-yl)biphenyl-4-yl]methyl]-imidazo[1,2-b]pyrazol-3-carboxylic acid] were, in that order, 91% and 60%.
Consider `CCCCc1nc2cccc(C(=O)O)c2n1Cc1ccc(-n2cccc2-c2nnn[nH]2)cc1` [Example 7, 2-Butyl-1-[[4-[2-(1H-tetrazol-5-yl)-1-pyrrolyl]phenyl]methyl]benzimidazole-7-carboxylic acid], for which, in test [1], 1 µM produced 67% inhibition and the inhibition at 0.1 µM was found to be 27%.
The like results for `CCCc1nn2ncc(C(=O)O)c2n1Cc1ccc(-c2ccccc2-c2nnn[nH]2)cc1` [Example 11, 2-Propyl-1-[[2'-(1H-tetrazol-5-yl)biphenyl-4-yl]methyl]-1H-pyrazolo[1,5-b][1,2,4]triazole-7-carboxylic acid] were, in that order, 86% and 54%.
In test [1], `CCOc1nc(C(=O)O)c2c(n1)nc(OCC)n2Cc1ccc(-c2ccccc2-c2nnn[nH]2)cc1` [Example 13, 2,8-Diethoxy-7-[[2'-(1H-tetrazol-5-yl)biphenyl-4-yl]methyl]purine-6-carboxylic acid] returned an inhibition at 1 µM of 49% and an inhibition at 0.1 µM of 20%.
As to `CCc1cc2c(=O)c3cccc(C(=O)OCOC(=O)C(C)(C)C)c3n(Cc3ccc(-c4ccccc4-c4nnn[nH]4)cc3)c2s1` [Example 14, Pivaloyloxymethyl 2-ethyl-4-oxo-9-[[2'-(1H-tetrazol-5-yl)biphenyl-4-yl]methyl]-4,9-dihydrothieno[2,3-b]quinoline-8-carboxylate], in test [1], the inhibition at 1 µM was 69% and the inhibition at 0.1 µM came out at 31%.
In test [1], `CCc1cc2c(=O)c3cccc(C(=O)OC(C)OC(=O)OC4CCCCC4)c3n(Cc3ccc(-c4ccccc4-c4nnn[nH]4)cc3)c2s1` (stereo not drawn) [Example 15, 1-(Cyclohexyloxycarbonyloxy)ethyl 2-ethyl-4-oxo-9-[[2'-(1H-tetrazol-5-yl)biphenyl-4-yl]methyl]-4,9-dihydrothieno[2,3-b]quinoline-8-carboxylate] yielded an inhibition at 1 µM of 19% and an inhibition at 0.1 µM of 1%.
The like results for `CCCc1cc2cccc(C(=O)O)c2n1Cc1ccc(-c2ccccc2-c2nnn[nH]2)cc1` [Example 17, 2-Propyl-1-[[2'-(1H-tetrazol-5-yl)biphenyl-4-yl]methyl]indole-7-carboxylic acid] were, in that order, 39% and 0%.
The like results for `CCCc1nn2ncc(C(=O)OCOC(=O)C(C)(C)C)c2n1Cc1ccc(-c2ccccc2-c2nnn[nH]2)cc1` [Example 20, Pivaloyloxymethyl 2-propyl-1-[[2'-(1H-tetrazol-5-yl)biphenyl-4-yl]methyl]-1H-pyrazolo[1,5-b][1,2,4]triazole-7-carboxylate] were, in that order, 61% and 21%.
In test [1], `CCCCc1nc2cccc(C(=O)O)c2n1Cc1ccc(-c2ccccc2-c2nnn[nH]2)nc1` [Example 21, 2-Butyl-1-[[2-[2-(1H-tetrazol-5-yl)phenyl]pyridin-5-yl]methyl]benzimidazole-7-carboxylic acid] showed an inhibition at 1 µM of 70% and an inhibition at 0.1 µM of 26%.
The like results for `CCCCc1nc2cccc(C(=O)O)c2n1Cc1ccc2c(=O)n(-c3ccccc3-c3nnn[nH]3)cnc2c1` [Example 26, 2-Butyl-1-[[4-oxo-3-[2-(1H-tetrazol-5-yl)phenyl]-3,4-dihydroquinazolin-7-yl]methyl]benzimidazole-7-carboxylic acid] were, in that order, 80% and 39%.
For the molecule `CNCC(=O)N[C@@H](CCCN=C(N)N)C(=O)N[C@H](C(=O)N[C@@H](Cc1ccc(O)cc1)C(=O)N[C@H](C(=O)N[C@@H](Cc1cnc[nH]1)C(=O)N1CCC[C@H]1C(=O)N[C@@H](C)C(=O)O)C(C)C)C(C)C` [saralasin], the angiotensinII antagonist activity result in test [2] is “potent”.

These data come from US5389641A, “Fused heterocyclic compounds, having angiotensin II antagonistic activity” (Takeda Chemical Industries, Ltd., priority 1991, dated 1995).
